The record followed here is ChEMBL document CHEMBL4371008, “Monoacylglycerol Acyltransferase 2 (MGAT2) Inhibitors for the Treatment of Metabolic Diseases and Nonalcoholic Steatohepatitis (NASH)” (J Med Chem, 2018).

pIC50: −log10 of the molar value.

One may read the inhibition in vivo as the drop in the measured response relative to a control, in per cent. The term bioavailability denotes dose-corrected exposure relative to a reference, in per cent. A word on the pIC50: it is −log10 of the IC50, conventionally taken in molar units.

The test system of data set [1] is Mus musculus. As to the kind of experiment: Inhibition of plasma triacylglycerol excursion in mouse at 10 mg/kg relative to control. The class given is functional.
Data set [2] has as its system Mus musculus. As to the kind of experiment: Inhibition of plasma triacylglycerol excursion in mouse at 30 mg/kg relative to control. The class given is functional.
Data set [3] has as its system Mus musculus. As to the kind of experiment: Inhibition of corn oil-induced plasma chylomicron triacylglycerol excursion in C57BL/6J mouse at 30 mg/kg, ip treated 16 hrs prior to liquid meal challenge measured up to 4 hrs by oral meal tolerance test relative to control. The class given is functional.
A short description of data set [4]: Ratio of plasma concentration in corn oil-treated C57BL/6J mouse at 30 mg/kg, ip to IC50 for mouse MGAT2. In kind it is ADME, organism-based. Particulars: in vivo.
Data set [5] has as its system Mus musculus. As to the kind of experiment: Anorectic effect in fasting high fat diet fed C57BL/6J mouse assessed as reduction in food intake at 30 mg/kg, po for 37 days followed by high fat diet feeding for 2 hrs relative to control. The class given is functional. Further details: scale not given: the % may be the effect or the level left.
In data set [6] the test system is Mus musculus. The data set is described as follows: Inhibition of corn oil-induced plasma triacylglycerol excursion in C57BL/6J mouse at 30 mg/kg administered via oral gavage 30 mins prior to corn oil challenge measured after 6 hrs by oral lipid tolerance test relative to control. In kind it is functional.
Data set [7] in a line: Oral bioavailability in mouse. As to conditions: in vivo. In kind it is ADME, organism-based.
Data set [8] can be described thus: Oral bioavailability in rat. The class given is ADME, organism-based. As to conditions: in vivo.
For data set [9], the target named is T1, Diacylglycerol O-acyltransferase 2 (Homo sapiens, UniProt Q96PD7).
T1 sequence (Q96PD7 whole entry): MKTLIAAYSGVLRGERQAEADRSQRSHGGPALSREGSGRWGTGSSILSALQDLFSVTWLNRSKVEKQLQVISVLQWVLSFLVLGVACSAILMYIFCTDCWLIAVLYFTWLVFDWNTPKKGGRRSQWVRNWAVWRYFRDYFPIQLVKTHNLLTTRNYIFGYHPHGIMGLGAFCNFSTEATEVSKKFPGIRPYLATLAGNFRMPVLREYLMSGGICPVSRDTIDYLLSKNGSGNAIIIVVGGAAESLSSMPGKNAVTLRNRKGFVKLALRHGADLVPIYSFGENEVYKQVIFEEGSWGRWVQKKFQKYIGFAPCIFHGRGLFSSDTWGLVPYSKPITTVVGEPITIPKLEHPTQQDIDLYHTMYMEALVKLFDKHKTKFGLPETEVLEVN
As to the kind of experiment: Inhibition of recombinant human DGAT2.

For data set [10], the species on record is Homo sapiens. The data set is described as follows: Selectivity ratio of IC50 for human MGAT3 to IC50 for human MGAT2.
Data set [11] has as its system Mus musculus. As to the kind of experiment: Decrease in insulin level in high sucrose, very low fat diet fed mouse model of fatty liver at 30 mg/kg relative to control. In kind it is functional. Further details: scale not given: the % may be the effect or the level left.
In data set [12] the test system is Mus musculus. The data set is described as follows: Decrease in insulin level in high sucrose, very low fat diet fed mouse model of fatty liver at 100 mg/kg relative to control. In kind it is functional. Details: scale not given: the % may be the effect or the level left.

In data set [1], `CC(C)(C)C1CCN(Cc2ccc([C@H](NS(C)(=O)=O)C(F)(F)F)cc2)CC1` registered an inhibition in vivo at 10 mg/kg of 69%. The same compound gave an inhibition in vivo at 30 mg/kg in data set [2] of 100%.
As for `Cn1nc(C(F)(F)F)cc1-c1cnc(N2CCc3cc(S(=O)(=O)Nc4c(F)cc(Cl)cc4F)cc(N4CCCC4=O)c32)nc1` [TP-020], in data set [3], the inhibition in vivo at 30 mg/kg is 58%. Further, the Ratio in data set [4] is 1000. Also, the Activity in data set [5] is recorded as 59%.
For `O=C(CNCCCCCOc1ccc(C(F)(F)F)cc1)N1CCc2nc(SC3CCC3)n(-c3ccccc3)c(=O)c2C1`, testing at 30 mg/kg in data set [6] gave an inhibition in vivo of 42%.
For the compound `O=C(CCNCC1COc2ccccc2O1)N1CCc2nc(SC3CCC3)n(-c3ccccc3)c(=O)c2C1` (stereo not drawn), 30 mg/kg produced 42% inhibition in vivo in [6].
As for `CCC1(C)NC(=O)c2cc(S(=O)(=O)Nc3ccc(F)cc3F)cc(Cl)c2NC1=O` (stereo not drawn), the bioavailability in [7] stood at 69%; in data set [8] it was 74%.
Consider `CC(C)(C)c1cc(C(C)(C)C)nc(N2CCn3c(nnc3-c3ccc(OC(F)(F)F)cc3)C2)n1`, for which, in data set [9], the pIC50 is less than 4.52. For the same compound, the Ratio IC50 in [10] was 300. For the same compound, the results for the Activity in data set [11] and in data set [12] were 57% and 51%, respectively.
